# Columns and labels:
# [1] = test system: aminopeptidase activity in human plasma sample; assay: Enzyme activity assay in microdevice with human plasma, aminopeptidase probes; format: biochemical; details: 50 μM probe, 37° C. for 2 hours
# Description: • 1. Ala-sHMRG as a fluorescent probe for detecting aminopeptidase activity was diluted with an assay buffer to 100 μM. The composition of the assay buffer is 100 mM HEPES-NaOH (pH 7.4), 1 mM MgCl2, 0.1% BSA, 1 mM DTT, 1 mM Triton X-100, • 2. Next, a human plasma sample was diluted by 500 times with the above assay buffer, and mixed in an equal amount with the diluted solution of the probe. At this time, the final concentrations of both are 50 μM for Ala-sHMRG and 1,000 fold dilution for the human plasma sample. • 3. The mixed solution of both was then added to a microdevice, followed by the addition of sealing oil to enclose the solution in each well. • 4. The microdevice in which the solution was enclosed was incubated at 37° C. for 4 hours, and then the fluorescence intensity of each well was measured with a fluorescence microscope.
# • 1. Leu-sHMRG as a fluorescent probe for detecting aminopeptidase activity was diluted with an assay buffer to 100 μM. The composition of the assay buffer is 100 mM HEPES-NaOH (pH 7.4), 1 mM MgCl2, 1 mM DTT, 3 mM Triton X-100. • 2. Next, a human plasma sample was diluted by 2,500 times with the above assay buffer, and mixed in an equal amount with the diluted solution of the probe. At this time, the final concentrations of both are 50 μM for Leu-sHMRG and 5,000 fold dilution for the human plasma sample. • 3. The mixed solution of both was then added to a microdevice, followed by the addition of sealing oil to enclose the solution in each well. • 4. The microdevice in which the solution was enclosed was incubated at 37° C. for 4 hours, and then the fluorescence intensity of each well was measured with a fluorescence microscope.
# (§1) • 5. Met-sHMRG as a fluorescent probe for detecting aminopeptidase activity was diluted with an assay buffer to 100 μM. The composition of the assay buffer is 100 mM HEPES-NaOH (pH 7.4), 1 mM MgCl2, 1 mM CaCl2, 1 mM DTT, 3 mM Triton X-100. • 6. Next, a human plasma sample was diluted by 500 times with the above assay buffer, and mixed in an equal amount with the diluted solution of the probe. At this time, the final concentrations of both are 50 μM for Met-sHMRG and 1,000 fold dilution for the human plasma sample. • 7. The mixed solution of both was then added to a microdevice, followed by the addition of sealing oil to enclose the solution in each well. • 8. The microdevice in which the solution was enclosed was incubated at 37° C. for 2 hours, and then the fluorescence intensity of each well was measured with a fluorescence microscope.
# as §1, with “• 9. Tyr-sHMRG” for “• 5. Met-sHMRG”, “• 10.” for “• 6.”, “for Tyr-sHMRG” for “for Met-sHMRG”, “• 11.” for “• 7.”, “• 12.” for “• 8.”, “for 4” for “for 2”
# • 1. Lys-sHMRG as a fluorescent probe for detecting aminopeptidase activity was diluted with an assay buffer to 100 μM. The composition of the assay buffer is 100 mM HEPES-NaOH (pH 7.4), 1 mM MgCl2, 1 mM CaCl2, 1 mM DTT, 3 mM Triton X-100. • 2. Next, a human plasma sample was diluted by 10,000 times with the above assay buffer, and mixed in an equal amount with the diluted solution of the probe. At this time, the final concentrations of both are 50 μM for Lys-sHMRG and 20,000 fold dilution for the human plasma sample. • 3. […]
# [2] = Solubility in sealing oil (hexadecane); format: physicochemical; details: oil or lipid, kinetic from dmso stock, room temperature (25° C.), three tests, average value±standard deviation
# Description: That is, 1 μL of a 10 mM DMSO solution of the test compound was added with respect to 100 μL of hexadecane as sealing oil, and the mixture was sonicated and suspended at room temperature (25° C.) for 1 minute. Thereafter, the solution was centrifuged for 30 seconds, 50 μL of the supernatant was collected and mixed with 100 μL of methanol, and a compound dissolved in hexadecane was extracted. Thereafter, the methanol solution from which the compound was extracted was analyzed by ultra performance liquid chromatography (UPLC) (eluent: A/B=95/5>5/95, A: 0.1% formic acid-containing 100% H2O, B: 0.1% formic acid-containing 100% CH3CN), and the concentration of the compound in the methanol solution was calculated from the peak area. In the calculation of the solution concentration using the UPLC peak area, solutions having a plurality of concentrations were prepared and measured for each compound, then a calibration curve was prepared (FIG. 5), and the calculation was performed according to the calibration curve.
# [3] = biological target: T1, aminopeptidase A (Homo sapiens, UniProt Q07075); assay: Signal/noise ratio of enzymolysate in cuvette; format: biochemical; details: 10 μM probe, 170 ng/mL aminopeptidase A, 25° C. 11 hours, @616 nm
# T1 sequence (Q07075 whole entry, species assumed): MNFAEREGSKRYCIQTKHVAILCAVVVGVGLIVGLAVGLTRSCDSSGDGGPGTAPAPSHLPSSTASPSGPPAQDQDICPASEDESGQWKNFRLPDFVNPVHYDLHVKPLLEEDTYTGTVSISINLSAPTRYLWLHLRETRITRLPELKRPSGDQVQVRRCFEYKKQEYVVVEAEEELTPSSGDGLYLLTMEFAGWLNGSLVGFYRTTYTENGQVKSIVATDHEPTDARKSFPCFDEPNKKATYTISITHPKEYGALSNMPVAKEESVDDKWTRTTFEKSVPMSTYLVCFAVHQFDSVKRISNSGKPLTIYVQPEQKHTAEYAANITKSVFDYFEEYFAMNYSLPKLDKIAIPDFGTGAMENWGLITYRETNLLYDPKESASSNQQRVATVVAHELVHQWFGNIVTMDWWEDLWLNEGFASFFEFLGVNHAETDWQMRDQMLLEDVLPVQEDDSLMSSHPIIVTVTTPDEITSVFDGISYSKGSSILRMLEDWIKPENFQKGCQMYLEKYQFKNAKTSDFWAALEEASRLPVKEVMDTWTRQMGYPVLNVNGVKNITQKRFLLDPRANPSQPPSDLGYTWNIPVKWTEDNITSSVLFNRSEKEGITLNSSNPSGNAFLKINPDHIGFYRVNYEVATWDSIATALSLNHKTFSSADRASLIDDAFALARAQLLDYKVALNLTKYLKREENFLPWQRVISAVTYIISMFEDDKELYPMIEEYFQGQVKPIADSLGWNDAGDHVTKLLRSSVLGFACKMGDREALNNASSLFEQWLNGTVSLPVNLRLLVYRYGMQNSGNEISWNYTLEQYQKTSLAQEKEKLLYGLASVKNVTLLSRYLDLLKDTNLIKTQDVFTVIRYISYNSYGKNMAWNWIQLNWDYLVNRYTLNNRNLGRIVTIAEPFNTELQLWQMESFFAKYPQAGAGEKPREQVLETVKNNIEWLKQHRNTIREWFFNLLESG
# Description: (§2) For two types of compounds Glu-sSiR (PB206/Example 12) and GP-sHMRG (PB109/Example 7), the signal/noise ratios of the enzymolysates before and after the enzyme reaction in the cuvette and the microdevice were each measured as follows. In the following experiments, the composition of the assay buffer is 100 mM HEPES-NaOH (pH 7.4), 1 mM MgCl2, 1 mM CaCl2), […].
# Glu-sSiR was diluted with an assay buffer so as to be 10 μM, then added to a quartz cuvette, and the fluorescence spectrum before the enzyme reaction was measured with a fluorometer (excitation wavelength: 570 nm). Thereafter, aminopeptidase A was added so that the concentration in the solution was 170 ng/mL, the solution was incubated at 25° C. for 11 hours, and then the fluorescence spectrum was measured. The fluorescence spectra before and after the enzyme reaction were compared, the ratio of the values at a wavelength at which the fluorescence intensity was maximized was calculated as the signal/noise ratio of the enzymolysate, the ratio was 32 times (@616 nm) (see FIG. 7A).
# [4] = biological target: T1, aminopeptidase A; assay: Signal/noise ratio of enzymolysate in microdevice; format: biochemical
# Description: as §2
# For Glu-sSiR, three kinds of solutions of (i) only an assay buffer, (ii) 30 μM of Glu-sSiR, and (iii) 30 μM of Glu-sSiR and 0.2 ng/mL of aminopeptidase A were prepared, and each solution was added to a microdevice, followed by the addition of sealing oil to enclose the solution in each well. The microdevice in which the solution was enclosed was incubated at 37° C. for 4 hours, and then the fluorescence intensity of each well was measured with a fluorescence microscope. When a difference between the average values of the fluorescence intensities of the respective wells in (ii) and (i) was defined as noise, a difference between the average value of the fluorescence intensities of the wells in which the enzyme was encapsulated in (iii) and the average value of the fluorescence intensities of the respective wells in (i) was defined as a signal, and a ratio of these values was calculated as the signal/noise ratio of the enzymolysate, the ratio was 8.3 times (see FIG. 8, panel A). […]
# [5] = test system: CD13; assay: Diagnostic experiment of pancreatic cancer utilizing single-molecule enzyme activity of CD13; format: biochemical, human; details: patients with pancreatic cancer compared with healthy subjects; 50 μM probe, plasma 20,000 fold dilution, 37° C. 2 hours
# Description: In order to detect the single-molecule enzyme activity of CD13, an experiment to verify the availability of a probe to which […] is bonded as a reaction point (in General Formula (I) or (II), an alanine residue was introduced as —CO—R0 or —CO—R^10) to detect a pancreatic cancer biomarker was performed in the following procedures. • 1. Ala-sSiR as a CD13 detecting probe was diluted with an assay buffer to 100 μM. The composition of the assay buffer is 100 mM HEPES-NaOH (pH 7.4), 1 mM MgCl2, 1 mM CaCl2), 1 mM DTT, 3 mM Triton X-100. • 2. Next, human plasma samples collected from 30 patients with pancreatic cancer and 30 healthy subjects were each diluted by 10,000 times with the above assay buffer, and mixed in an equal amount with the diluted solution of Ala-sSiR. […] The microdevice in which the solution was enclosed was incubated at 37° C. for 2 hours, and then the fluorescence intensity of each well was measured with a fluorescence microscope.
# Specifically, in this example, an ROC curve for determination based on the enzyme activity of CD13 determined based on the proportion of wells with a luminance of 2500 AU or more is created, and when a threshold is subtracted at the time when the number of wells of a signal is 3%, the sensitivity is 27% and the specificity is 100% (the right view of FIG. 3). […]
smiles,measurement,setting,value
Cc1ccc(S(=O)(=O)O)cc1C1=C2C=CC(=N)C=C2[Si](C)(C)c2cc(NC(=O)[C@@H](N)CCC(=O)O)ccc21 [Glu-sSiR],fluorescence intensity of wells in which the reacting enzyme was enclosed,"[1]; human plasma 1,000 fold dilution",increase in fluorescence intensity was observed
same,solubility at 1 min,[2],0.3 ± 0.096 µM
same,signal/noise ratio of the enzymolysate,[3],32 times
same,ratio of the signal/noise ratio in the microdevice to the signal/noise ratio in the cuvette,[4]; aminopeptidase A,0.26
same,signal/noise ratio of the enzymolysate,"[4]; microdevice, 30 μM probe, 0.2 ng/mL aminopeptidase A, 37° C. 4 hours",8.3 times
Cc1ccc(S(=O)(=O)O)cc1C1=C2C=CC(=N)C=C2[Si](C)(C)c2cc(NC(=O)[C@H](C)N)ccc21 [Ala-sSiR],fluorescence intensity of wells in which the reacting enzyme was enclosed,"[1]; human plasma 20,000 fold dilution",increase in fluorescence intensity was observed
same,"number of wells in which the luminance is 2,500 AU or more (CD13 considered enclosed)",[5],significant increase

# Reference: US20250313879A1, “Fluorescent Probe for Detecting Peptide Bond Hydrolase” (The University of Tokyo, priority 2022, published 2025)
